# Read-outs that look alike come from different tables or passages of the source.
# Test: Solubility in water by incremental addition of water until complete solubilization
# Format: physicochemical
# Details: for % Solubility (solids (g)/ final volume (ml)): in water at room temperature, Example 4 samples
# Method: In Example 4, RA89.95 Stevia starting material was processed through two reflux stages of the industrial embodiment of the invention, and a sample of the final product of the industrial process used as starting material in a stirred wash stage of the laboratory embodiment of the invention. Specifically, 100 kilograms of RA90 Stevia starting material were mixed with 400 liters of 90Et/10W solvent (this experiment was conducted while the starting material assay was still being perfected) and refluxed for 1 hour at 80° C., then cooled (chilled water in tank jacket) and allowed to stand for a minimum of 2 hours with mixture temperature maintained between 4° C. and 20° C. The mixture was filtered through a centrifugal decanter, and the retentate added to 400 liters of 90Et/10W solvent and refluxed for 1 hour at 80° C. The mixture from the second reflux was filtered through a centrifugal decanter. The retentate of the filtering of the second reflux mixture was mixed with water until the volume of the mixture was approximately twice the mass of the retentate (e.g., 350 kg retentate in a total mixture volume of 700 liters). The mixture in water was heated to 80° C. for approximately one hour to purge any residual ethanol from the mixture, then the mixture was spray-dried. There was no reflux in absolute ethanol prior to spray drying. The spray-dried product was weighed and a 0.1 gram sample was analyzed for rebaudioside A content using the HPLC Method described above. Five grams of the spray-dried material was mixed with 20 mls of absolute ethanol in a 100 ml round-bottomed flask and refluxed for 1 hour at 80° C. (“refluxed sample”) and then allowed to cool to room temperature. A second 5 gram sample of the spray-dried material was mixed with 20 mls of absolute ethanol and stirred for 15 minutes at room temperature (“stirred sample”). Both samples were filtered over a Whatman GF/A glass fiber filter (1.6 μm pore size) and the retained solids of both samples were dried in a blower oven at 80° C. until the solids maintained a constant weight. 1 gram each of the refluxed sample and of the stirred sample were placed in 15 ml glass centrifuge tubes. Water was added to each tube in 0.1 ml increments and the mixture thoroughly shaken to ensure maximum solubilization. Incremental aliquots of water were added until complete solubilization was achieved as evidenced by the lack of any observable suspended solids in the solution. The final volume at which complete solubilization occurred in each sample was noted.
Structure (SMILES),% Solubility (solids (g)/ final volume (ml)) [%],solubility in water,also measured
"C=C1C[C@@]23CC[C@H]4[C@@](C)(CCC[C@@]4(C)C(=O)O[C@@H]4O[C@H](CO)[C@@H](O)[C@H](O)[C@H]4O)[C@@H]2CC[C@]1(O[C@@H]1O[C@H](CO)[C@@H](O)[C@H](O[C@@H]2O[C@H](CO)[C@@H](O)[C@H](O)[C@H]2O)[C@H]1O[C@@H]1O[C@H](CO)[C@@H](O)[C@H](O)[C@H]1O)C3 [1 hour reflux in 100% ethanol, rebaudioside A]",40,–,% Solubility (solids (g)/ final volume (ml)) (listed as 1 hour reflux in absolute ethanol): 40%
"C=C1C[C@@]23CC[C@H]4[C@@](C)(CCC[C@@]4(C)C(=O)O[C@@H]4O[C@H](CO)[C@@H](O)[C@H](O)[C@H]4O)[C@@H]2CC[C@]1(O[C@@H]1O[C@H](CO)[C@@H](O)[C@H](O[C@@H]2O[C@H](CO)[C@@H](O)[C@H](O)[C@H]2O)[C@H]1O[C@@H]1O[C@H](CO)[C@@H](O)[C@H](O)[C@H]1O)C3 [15 minute stir in 100% ethanol, rebaudioside A]",33,–,% Solubility (solids (g)/ final volume (ml)) (listed as 15 minute stirred wash in absolute ethanol): 33%
"C=C1C[C@@]23CC[C@H]4[C@@](C)(CCC[C@@]4(C)C(=O)O[C@@H]4O[C@H](CO)[C@@H](O)[C@H](O)[C@H]4O)[C@@H]2CC[C@]1(O[C@@H]1O[C@H](CO)[C@@H](O)[C@H](O[C@@H]2O[C@H](CO)[C@@H](O)[C@H](O)[C@H]2O)[C@H]1O[C@@H]1O[C@H](CO)[C@@H](O)[C@H](O)[C@H]1O)C3 [Example 6, rebaudioside A]",–,–,solubility in water (at 25° C.): 59.0%
"C=C1C[C@@]23CC[C@H]4[C@@](C)(CCC[C@@]4(C)C(=O)O[C@@H]4O[C@H](CO)[C@@H](O)[C@H](O)[C@H]4O)[C@@H]2CC[C@]1(O[C@@H]1O[C@H](CO)[C@@H](O)[C@H](O[C@@H]2O[C@H](CO)[C@@H](O)[C@H](O)[C@H]2O)[C@H]1O[C@@H]1O[C@H](CO)[C@@H](O)[C@H](O)[C@H]1O)C3 [No 100% ethanol treatment, rebaudioside A]",2,–,% Solubility (solids (g)/ final volume (ml)) (listed as 99.6% Reb A purity product): 2%
"C=C1C[C@@]23CC[C@H]4[C@@](C)(CCC[C@@]4(C)C(=O)O[C@@H]4O[C@H](CO)[C@@H](O)[C@H](O)[C@H]4O)[C@@H]2CC[C@]1(O[C@@H]1O[C@H](CO)[C@@H](O)[C@H](O[C@@H]2O[C@H](CO)[C@@H](O)[C@H](O)[C@H]2O)[C@H]1O[C@@H]1O[C@H](CO)[C@@H](O)[C@H](O)[C@H]1O)C3 [final product, rebaudioside A]",–,~33%,–
"C=C1C[C@@]23CC[C@H]4[C@@](C)(CCC[C@@]4(C)C(=O)O[C@@H]4O[C@H](CO)[C@@H](O)[C@H](O)[C@H]4O)[C@@H]2CC[C@]1(O[C@@H]1O[C@H](CO)[C@@H](O)[C@H](O[C@@H]2O[C@H](CO)[C@@H](O)[C@H](O)[C@H]2O)[C@H]1O[C@@H]1O[C@H](CO)[C@@H](O)[C@H](O)[C@H]1O)C3 [purified rebaudioside A, rebaudioside A]",–,about 33%,–
